Source: the supplement of paper PMC10331698
± gives the standard deviation of the averaged measurements.

Columns and labels:
Experiment in all cases: level (log10 ratio to DMSO vehicle control); higher = higher biomarker level / cell amount than vehicle control
[1] = compound: CO[Si](C)(CCC(F)(F)C(F)(F)C(F)(F)C(F)(F)C(F)(F)C(F)(F)F)OC [Dimethoxymethyl((perfluorohexyl)ethyl)silane] (in DMSO)
Description: (§1)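 BioMAP Diversity Plus panel of 12 human primary cell co-culture systems (3C, 4H, LPS, SAg, BT, BF4T, BE3C, CASM3C, HDF3CGF, KF3CT, MyoF, Mphg). Compounds were added 1 h before stimulation and left for 24 h (MyoF 48 h; BT 72 h for soluble read-outs or 6 d for IgG). Biomarkers were read by ELISA, cytotoxicity by SRB, PBMC viability and proliferation by Alamar Blue. Each well value was divided by the mean of 8 DMSO control wells on the same plate and log10 transformed; duplicate blinded samples were tested at 4 concentrations.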

[2] = compound: C[C@@H]1C[C@H]2[C@@H]3CCC4=CC(=O)C=C[C@]4(C)[C@@]3(F)[C@@H](O)C[C@]2(C)[C@@]1(O)C(=O)COP(=O)(O)O [Dexamethasone sodium phosphate] (in DMSO)
Description: as §1

[3] = compound: NS(=O)(=O)C(F)(F)C(F)(F)C(F)(F)C(F)(F)C(F)(F)C(F)(F)C(F)(F)C(F)(F)F [Perfluorooctanesulfonamide] (in DMSO)
Description: as §1

[4] = compound: O=C(O)C(F)(OC(F)(F)C(F)(OC(F)(F)C(F)(OC(F)(F)C(F)(F)C(F)(F)F)C(F)(F)F)C(F)(F)F)C(F)(F)F [Perfluoro-(2,5,8-trimethyl-3,6,9-trioxadodecanoic)acid] (in DMSO)
Description: as §1

[5] = compound: O=S(=O)(O)C(F)(F)C(F)(F)C(F)(F)C(F)(F)C(F)(F)C(F)(F)C(F)(F)F [Perfluoroheptanesulfonic acid] (in DMSO)
Description: as §1

[6] = compound: O=S(=O)(O)CCC(F)(F)C(F)(F)C(F)(F)C(F)(F)C(F)(F)C(F)(F)C(F)(F)C(F)(F)F [8:2 Fluorotelomer sulfonic acid] (in DMSO)
Description: as §1

Test System	level (log10) ([1]; 6700 nM)	level (log10) ([1]; 20000 nM)	level (log10) ([2]; 1500 nM)	level (log10) ([2]; 4400 nM)	level (log10) ([2]; 13000 nM)	level (log10) ([2]; 40000 nM)	level (log10) ([3]; 6700 nM)	level (log10) ([3]; 20000 nM)	level (log10) ([4]; 1100 nM)	level (log10) ([4]; 3300 nM)	level (log10) ([4]; 10000 nM)	level (log10) ([5]; 1500 nM)	level (log10) ([5]; 4400 nM)	level (log10) ([5]; 13000 nM)	level (log10) ([5]; 40000 nM)	level (log10) ([6]; 6700 nM)	level (log10) ([6]; 20000 nM)	level (log10) ([6]; 60000 nM)
BT:PBMC Cytotoxicity	-0.0015 ± 0.0021	0.023 ± 0.0028	-0.0915 ± 0.00071	-0.102 ± 0.028	-0.107 ± 0.0064	-0.0975 ± 0.039	0.0175 ± 0.0064	0.03 ± 0.0099	-0.0095 ± 0.0092	-0.022 ± 0.011	-0.04 ± 0.047	-0.0045 ± 0.021	-0.009 ± 0.011	-0.0015 ± 0.013	0.0145 ± 0.054	0.006 ± 0.018	0.0115 ± 0.005	0.0505 ± 0.018
BT:Secreted IgG	0.0505 ± 0.0078	0.021 ± 0.018	0.024 ± 0.0085	0.002	0.034 ± 0.011	0.0025 ± 0.036	-0.018 ± 0.0085	-0.141 ± 0.1	0.0215 ± 0.049	0.0315 ± 0.013	0.0065 ± 0.021	0.0285 ± 0.0021	0.0265 ± 0.0064	-0.006 ± 0.033	0.002 ± 0.045	0.032 ± 0.0099	-0.014 ± 0.031	-0.025 ± 0.014
BT:sIL-2	-0.0455 ± 0.12	0.0425 ± 0.026	-0.442 ± 0.033	-0.451 ± 0.12	-0.458 ± 0.039	-0.456 ± 0.032	-0.0115 ± 0.049	0.0005 ± 0.028	0 ± 0.05	0.061 ± 0.069	0.0465 ± 0.026	-0.0445 ± 0.037	0.0215 ± 0.039	-0.0005 ± 0.013	-0.0565 ± 0.036	-0.023 ± 0.073	0.0195 ± 0.057	0.009 ± 0.011
BT:sIL-6	-0.038 ± 0.076	0.0465 ± 0.14	-0.2605 ± 0.0021	-0.281 ± 0.07	-0.3065 ± 0.0021	-0.33 ± 0.061	-0.0455 ± 0.023	-0.0485 ± 0.026	-0.0085 ± 0.07	0.0025 ± 0.053	0.038 ± 0.013	0.004 ± 0.013	0.03 ± 0.013	-0.027 ± 0.011	-0.139 ± 0.057	0.015 ± 0.035	0.0445 ± 0.015	-0.005 ± 0.085
BT:sIL-17A	-0.0265 ± 0.029	-0.025 ± 0.17	-0.776 ± 0.019	-0.55 ± 0.03	-0.652 ± 0.057	-0.717 ± 0.042	-0.0315 ± 0.16	0.0435 ± 0.052	-0.024 ± 0.11	0.121 ± 0.12	0.0575 ± 0.17	0.0335 ± 0.076	0.113 ± 0.035	0.026 ± 0.14	-0.078 ± 0.058	-0.152 ± 0.057	-0.012 ± 0.013	-0.0805 ± 0.16
BT:sIL-17F	0.074 ± 0.0014	0.102 ± 0.064	-0.259 ± 0.0099	-0.251 ± 0.058	-0.262 ± 0.012	-0.239 ± 0.047	-0.0365 ± 0.084	-0.0785 ± 0.11	0.044 ± 0.064	0.0125 ± 0.16	-0.0705 ± 0.046	-0.0155 ± 0.096	0.0185 ± 0.025	0.0535 ± 0.064	-0.004 ± 0.067	-0.0295 ± 0.091	0.053 ± 0.0071	0.018
BT:sTNF-alpha	-0.0935 ± 0.15	0.094 ± 0.11	-0.575 ± 0.0078	-0.553 ± 0.0099	-0.525 ± 0.13	-0.566 ± 0.13	-0.045 ± 0.13	-0.11 ± 0.15	-0.0445 ± 0.052	-0.028 ± 0.021	0.0375 ± 0.079	-0.022 ± 0.018	-0.043 ± 0.0042	-0.048 ± 0.014	-0.101 ± 0.0099	0.006 ± 0.095	0 ± 0.0071	0.009 ± 0.034
